Reference: US6737383B1, “Herbicidal oxadiazolidines” (priority 1999, dated 2004)

Key:
purple nutsedge = assay: Test B pre/postemergence purple nutsedge; format: in vivo, Cyperus rotundus
How it was run: (§1)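 Response is a visual 0-to-10 score relative to untreated plants, where 0 means no effect and 10 means complete control, taken twelve to sixteen days after application. Treatments went onto soil at planting and onto foliage of 1- to 4-leaf plants, using a surfactant-containing non-phytotoxic solvent.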

giant foxtail = assay: Test B pre/postemergence giant foxtail; format: in vivo, Setaria faberii
How it was run: as §1

wild oat = assay: Test B pre/postemergence wild oat; format: in vivo, Avena fatua
How it was run: as §1

velvetleaf = assay: Test B pre/postemergence velvetleaf; format: in vivo, Abutilon theophrasti
How it was run: as §1

bedstraw = assay: Test B pre/postemergence bedstraw; format: in vivo, Galium aparine
How it was run: as §1

cocklebur = assay: Test B pre/postemergence cocklebur; format: in vivo, Xanthium strumarium
How it was run: as §1

surinam grass = assay: Test B pre/postemergence surinam grass; format: in vivo, Brachiaria decumbens
How it was run: as §1

wheat = assay: Test B pre/postemergence wheat; format: in vivo, Triticum aestivum
How it was run: as §1

pigweed = assay: Test B pre/postemergence pigweed; format: in vivo, Amaranthus retroflexus
How it was run: as §1

sugar beet = assay: Test B pre/postemergence sugar beet; format: in vivo, Beta vulgaris
How it was run: as §1

morningglory = assay: Test B pre/postemergence morningglory; format: in vivo, Ipomoea hederacea
How it was run: as §1

crabgrass = assay: Test B pre/postemergence crabgrass; format: in vivo, Digitaria sanguinalis
How it was run: as §1

blackgrass = assay: Test B pre/postemergence blackgrass; format: in vivo, Alopecurus myosuroides
How it was run: as §1

corn = assay: Test B pre/postemergence corn; format: in vivo, Zea mays
How it was run: as §1

rape = assay: Test B pre/postemergence rape; format: in vivo, Brassica napus
How it was run: as §1

soybean = assay: Test B pre/postemergence soybean; format: in vivo, Glycine max
How it was run: as §1

[1] = Preemergence, Rate 62 g/ha, scale of 0 to 10 where 0 is no effect and 10 is complete control
[2] = Preemergence, Rate 125 g/ha, 0 is no effect, 10 is complete control
[3] = Preemergence, Rate 250 g/ha, scale 0 to 10, 0 is no effect, 10 is complete control
[4] = Preemergence, Rate 500 g/ha, scale 0 to 10 (0 no effect, 10 complete control)
[5] = Rate 62 g/ha, Postemergence, scale of 0 to 10 where 0 is no effect and 10 is complete control
[6] = Rate 125 g/ha, Postemergence, scale 0 to 10
[7] = Rate 500 g/ha, Postemergence, scale 0 to 10

## CC(C)N(C(=O)n1oc(=O)n(CC2CO2)c1=O)c1ccc(F)cc1 (centres unmarked) [Compound 188]
Purple nutsedge; [1]
  Nutsedge plant response rating: 0
Purple nutsedge; [2]
  Nutsedge plant response rating (0 to 10 scale): 0
Purple nutsedge; [3]
  Nutsedge plant response rating: 0
Purple nutsedge; [4]
  Nutsedge plant response rating: 0
Purple nutsedge; [5]
  Nutsedge plant response rating: 0
Purple nutsedge; [6]
  Nutsedge plant response rating: 0
Purple nutsedge; Rate 250 g/ha, Postemergence
  Plant response rating (0 to 10; 0 is no effect, 10 is complete control), Nutsedge: 0
Purple nutsedge; [7]
  Nutsedge plant response rating: 0
Giant foxtail; [1]
  Giant foxtail plant response rating: 0
Giant foxtail; [2]
  Giant foxtail plant response rating (0 to 10 scale): 2
Giant foxtail; [3]
  Giant foxtail plant response rating: 4
Giant foxtail; [4]
  Giant foxtail plant response rating: 7
Giant foxtail; [5]
  Giant foxtail plant response rating: 0
Giant foxtail; [6]
  Giant foxtail plant response rating: 0
Giant foxtail; Rate 250 g/ha, Postemergence
  Plant response rating (0 to 10; 0 is no effect, 10 is complete control), Giant foxtail: 2
Giant foxtail; [7]
  Giant foxtail plant response rating: 4
Wild oat; [1]
  Wild oats plant response rating: 0
Wild oat; [3]
  Wild oats plant response rating: 0
Wild oat; [4]
  Wild oats plant response rating: 0
Wild oat; [5]
  Wild oats plant response rating: 0
Wild oat; [6]
  Wild oats plant response rating: 0
Wild oat; Rate 250 g/ha, Postemergence
  Plant response rating (0 to 10; 0 is no effect, 10 is complete control), Wild oats: 0
velvetleaf; [1]
  Velvetleaf plant response rating: 0
velvetleaf; [3]
  Velvetleaf plant response rating: 0
velvetleaf; [4]
  Velvetleaf plant response rating: 2
velvetleaf; [5]
  Velvetleaf plant response rating: 0
velvetleaf; [6]
  Velvetleaf plant response rating: 0
velvetleaf; Rate 250 g/ha, Postemergence
  Plant response rating (0 to 10; 0 is no effect, 10 is complete control), Velvetleaf: 0
bedstraw; [1]
  Bedstraw plant response rating: 0
bedstraw; [2]
  Bedstraw plant response rating (0 to 10 scale): 0
bedstraw; [3]
  Bedstraw plant response rating: 0
bedstraw; [4]
  Bedstraw plant response rating: 0
bedstraw; [5]
  Bedstraw plant response rating: 0
bedstraw; [6]
  Bedstraw plant response rating: 0
bedstraw; Rate 250 g/ha, Postemergence
  Plant response rating (0 to 10; 0 is no effect, 10 is complete control), Bedstraw: 3
bedstraw; [7]
  Bedstraw plant response rating: 5
cocklebur; [1]
  Cocklebur plant response rating: 0
cocklebur; [2]
  Cocklebur plant response rating (0 to 10 scale): 0
cocklebur; [3]
  Cocklebur plant response rating: 0
cocklebur; [4]
  Cocklebur plant response rating: 0
cocklebur; [5]
  Cocklebur plant response rating: 0
cocklebur; [6]
  Cocklebur plant response rating: 0
cocklebur; Rate 250 g/ha, Postemergence
  Plant response rating (0 to 10; 0 is no effect, 10 is complete control), Cocklebur: 0
cocklebur; [7]
  Cocklebur plant response rating: 0
Surinam grass; [1]
  B. signalgrass plant response rating: 0
Surinam grass; [2]
  B. signalgrass plant response rating (0 to 10 scale): 0
Surinam grass; [3]
  B. signalgrass plant response rating: 6
Surinam grass; [4]
  B. signalgrass plant response rating: 7
Surinam grass; [5]
  B. signalgrass plant response rating: 0
Surinam grass; Rate 125 g/ha, Postemergence, scale 0 (no effect) to 10 (complete control)
  B. signalgrass plant response rating: 0
Surinam grass; Rate 250 g/ha, Postemergence, scale 0 to 10, 0 is no effect, 10 is complete control
  Plant response rating, B. signalgrass: 0
Surinam grass; Rate 500 g/ha, Postemergence, scale 0 to 10, 0 no effect, 10 complete control
  B. signalgrass plant response rating: 0
wheat; [1]
  Wheat plant response rating: 0
wheat; [3]
  Wheat plant response rating: 0
wheat; [4]
  Wheat plant response rating: 0
wheat; [5]
  Wheat plant response rating: 0
wheat; [6]
  Wheat plant response rating: 0
wheat; Rate 250 g/ha, Postemergence
  Plant response rating (0 to 10; 0 is no effect, 10 is complete control), Wheat: 0
pigweed; [1]
  Redroot pigweed plant response rating: 0
pigweed; [2]
  Redroot pigweed plant response rating (0 to 10 scale): 0
pigweed; [3]
  Redroot pigweed plant response rating: 0
pigweed; [4]
  Redroot pigweed plant response rating: 0
pigweed; [5]
  Redroot pigweed plant response rating: 0
pigweed; [6]
  Redroot pigweed plant response rating: 0
pigweed; Rate 250 g/ha, Postemergence
  Plant response rating (0 to 10; 0 is no effect, 10 is complete control), Redroot pigweed: 0
pigweed; [7]
  Redroot pigweed plant response rating: 3
Sugar beet; [1]
  Sugarbeets plant response rating: 0
Sugar beet; [2]
  Sugarbeets plant response rating (0 to 10 scale): 0
Sugar beet; [3]
  Sugarbeets plant response rating: 0
Sugar beet; [4]
  Sugarbeets plant response rating: 6
Sugar beet; [5]
  Sugarbeets plant response rating: 0
Sugar beet; [6]
  Sugarbeets plant response rating: 0
Sugar beet; Rate 250 g/ha, Postemergence
  Plant response rating (0 to 10; 0 is no effect, 10 is complete control), Sugarbeets: 0
Sugar beet; [7]
  Sugarbeets plant response rating: 7
morningglory; [1]
  Morningglory plant response rating: 0
morningglory; [2]
  Morningglory plant response rating (0 to 10 scale): 0
morningglory; [3]
  Morningglory plant response rating: 0
morningglory; [4]
  Morningglory plant response rating: 0
morningglory; [5]
  Morningglory plant response rating: 0
morningglory; [6]
  Morningglory plant response rating: 0
morningglory; Rate 250 g/ha, Postemergence
  Plant response rating (0 to 10; 0 is no effect, 10 is complete control), Morningglory: 0
morningglory; [7]
  Morningglory plant response rating: 0
crabgrass; [1]
  Crabgrass plant response rating: 0
crabgrass; [2]
  Crabgrass plant response rating (0 to 10 scale): 0
crabgrass; [3]
  Crabgrass plant response rating: 0
crabgrass; [4]
  Crabgrass plant response rating: 0
crabgrass; [5]
  Crabgrass plant response rating: 0
crabgrass; [6]
  Crabgrass plant response rating: 0
crabgrass; Rate 250 g/ha, Postemergence
  Plant response rating (0 to 10; 0 is no effect, 10 is complete control), Crabgrass: 3
crabgrass; [7]
  Crabgrass plant response rating: 3
blackgrass; [1]
  Blackgrass plant response rating: 0
blackgrass; [2]
  Blackgrass plant response rating (0 to 10 scale): 0
blackgrass; [3]
  Blackgrass plant response rating: 0
blackgrass; [4]
  Blackgrass plant response rating: 0
blackgrass; [5]
  Blackgrass plant response rating: 0
blackgrass; [6]
  Blackgrass plant response rating: 0
blackgrass; Rate 250 g/ha, Postemergence
  Plant response rating (0 to 10; 0 is no effect, 10 is complete control), Blackgrass: 0
blackgrass; [7]
  Blackgrass plant response rating: 3
corn; [1]
  Corn plant response rating: 0
corn; [2]
  Corn plant response rating (0 to 10 scale): 0
corn; [3]
  Corn plant response rating: 0
corn; [4]
  Corn plant response rating: 0
corn; [5]
  Corn plant response rating: 0
corn; [6]
  Corn plant response rating: 0
corn; Rate 250 g/ha, Postemergence
  Plant response rating (0 to 10; 0 is no effect, 10 is complete control), Corn: 0
corn; [7]
  Corn plant response rating: 0
rape; [1]
  Rape plant response rating: 0
rape; [2]
  Rape plant response rating (0 to 10 scale): 0
rape; [3]
  Rape plant response rating: 0
rape; [4]
  Rape plant response rating: 0
rape; [5]
  Rape plant response rating: 0
rape; [6]
  Rape plant response rating: 0
rape; Rate 250 g/ha, Postemergence
  Plant response rating (0 to 10; 0 is no effect, 10 is complete control), Rape: 0
rape; [7]
  Rape plant response rating: 0
soybean; [1]
  Soybean plant response rating: 0
soybean; [2]
  Soybean plant response rating (0 to 10 scale): 0
soybean; [3]
  Soybean plant response rating: 0
soybean; [4]
  Soybean plant response rating: 0
soybean; [5]
  Soybean plant response rating: 1
soybean; [6]
  Soybean plant response rating: 2
soybean; Rate 250 g/ha, Postemergence
  Plant response rating (0 to 10; 0 is no effect, 10 is complete control), Soybean: 2
soybean; [7]
  Soybean plant response rating: 3
